The values below are quoted from earlier work in patent US20050266079A1, “Process for making aqueous coated beadlets” (SmithKline Beecham Corporation, priority 1999, published 2005).

The conditions of this series: in vivo; cited from earlier work.

`CN[C@@H](C)[C@@H](O)c1ccccc1.Cl` [Pseudoephedrine HCl, (1S, 2S)-2-Methylamino-1-phenyl-1-propanol hydrochloride]: the elimination half life was 5 to 8 h.
